Laboratory results from patent US20010004528A1, “USE OF 13C NUCLEAR MAGNETIC RESONANCE TO DETECT BINDING TO TARGET MOLECULES” (priority 1995, published 2001).

Molecular target: T1, FKBP (Homo sapiens, UniProt P62942)
T1 construct: made in house; host or cells: E. coli
Assay: Screening for ligands using 13C/1H NMR correlation spectra of 13C-enriched FKBP
Assay type: binding
Protocol: Uniformly ^13C-enriched FKBP was prepared in accordance with the procedures detailed above. […]
Two-dimensional ^13C/^1H NMR spectra were generated at 30° C. on a Bruker DRX500 NMR spectrometer equipped with a triple resonance probe and Bruker sample changer. The ^13C/^1H HSQC spectra were acquired as 64×1024 complex points using sweep widths of 3771 Hz (^13C, t1) and 8333 Hz (^1H, t2). A delay of 1 second between scans and 8 scans per free induction decay (fid) were employed in the data collection. All NMR spectra were processed and analyzed on Silicon Graphics computers.
A first two-dimensional ^13C/^1H NMR correlation spectrum was acquired for the ^13C-labeled FKBP target molecule as described above. The FKBP target was then exposed to a library mixture of test compounds. Stock solutions of the compounds were made at 100 mM and 1 M. In addition, a combination library was prepared which contained 8-10 compounds per sample at a concentration of 100 mM for each compound.
The pH of the 1 M stock solution was adjusted with acetic acid and ethanolamine so that no pH change was observed upon a 1/10dilution with a 100 mM phosphate buffered solution (pH 7.0). It is important to adjust the pH, because small changes in pH can alter the chemical shifts of the biomolecules and complicate the interpretation of the NMR data.
The compounds in the library were selected on the basis of size (molecular weight=100-300) and molecular diversity. The molecules in the collection had different shapes (for example, flat aromatic rings(s), puckered aliphatic rings(s), straight and branched chain aliphatics with single, double, or triple bonds) and diverse functional groups (for example, carboxylic acids, esters, ethers, amines, aldehydes, ketones, and various heterocyclic rings) to maximize the possibility of discovering compounds that interact with widely diverse binding sites. […]

T1 sequence (P62942 whole entry): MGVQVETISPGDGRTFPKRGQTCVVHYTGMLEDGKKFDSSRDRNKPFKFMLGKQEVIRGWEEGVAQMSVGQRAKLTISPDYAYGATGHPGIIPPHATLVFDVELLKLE

SMILES: c1ccc(-c2ncc[nH]2)cc1 [2-phenylimidazole]
- involvement of alanyl residues in binding (13C/1H correlation spectra) (FKBP selectively 13C labeled at alanyl residues, 2-phenylimidazole 0.25 mM): none of the alanyl residues are involved in the binding
- binding site residues from chemical shift changes in 13C/1H correlation spectra (FKBP selectively 13C/15N/2H labeled at valinyl and leucyl residues, 2-phenylimidazole 0.25 mM): binding is occurring at or near the Leu^97 and Val^55 residues
- binding to FKBP detected by chemical shift changes in 13C/1H correlation spectra (uniformly 13C-enriched FKBP 0.2 mM, compound about 0.25 mM, phosphate buffer pH 6.5, 30° C.): found to bind to FKBP
